Data published in US20200129435A1, “COMPOSITION FOR DELIVERING A THERAPEUTIC AGENT AND METHODS FOR MAKING AND USING” (UVic Industry Partnerships Inc., priority 2018, published 2020).
Like-named read-outs stand apart in the source and are kept apart here.

Columns and labels:
U-87 MG cells [1] = experiment: Cell count assay (hemocytometer, Trypan Blue); type: cell-based, human; details: 40 μM ATRA in cell medium
Method: U-87 MG cells were provided by ATCC® and cultured in Dulbecco's Modified Eagle Medium (DMEM), high glucose (Gibco™ by Life Technologies™, Carlsbad, USA, Catalog No.: 11965084) with 10% fetal bovine serum (Gibco™ by Life Technologies™, Carlsbad, USA, Catalog No.: 12483020), 1% penicillin-streptomycin (Invitrogen/Life Technologies™, Carlsbad, USA, Catalog No.: 15140122), and 4 μg/ml puromycin at 37° C. in an atmosphere of 5% CO2. Cells were counted by hemocytometer (Bright-Line™) with two-time dilution in Trypan Blue solution (Sigma-Aldrich, St Louis, USA, Catalog No.:93595).

[2] = oral administration is the main route; cited from earlier work
U-87 MG cells [3] = experiment: Apoptosis assay, propidium iodide flow cytometry, sub-G1 population; type: cell-based, human; details: free ATRA 40 μM; 48 hours
Method: To determine the level of apoptosis induced by ATRA apoptosis levels were detected using propidium iodide (PI) lysis buffer and flow cytometry. […] 1% sodium citrate (Bio Basic, Markham, Canada, Catalog No.: CB0035) and 0.1% Triton X-100 (Sigma-Aldrich, Sigma-Aldrich, St. Louis, USA Catalog No.: X100) were added to distilled water to prepare an initial solution for PI lysis buffer. The pH of the solution was adjusted to 7.4 and stored.
Prior to the apoptosis assay, RNase (Sigma-Aldrich, St. Louis, USA Catalog No.: R6513) and propidium iodide (Sigma-Aldrich, St. Louis, USA Catalog No.: P4864) was added to the initial solution to reach concentrations of 0.5 mg/ml and 40 μg/ml for RNase and propidium iodide, respectively. The cell media was collected and the cells were detached with EDTA (Caledon Laboratory Chemicals, Georgetown, Canada, Catalog No.: 3460-1-65) solution. The cell suspension was centrifuged at 4° C. in 1500 g for 5 minutes. Following, the cell pellets were washed twice with 500 μl of DPBS (Gibco™ by Life Technologies™, Carlsbad, USA, Catalog No.: 14190250) 4° C. The pellets were then lysed and stained with 250 μl of PI lysis buffer, and kept at room temperature in the dark for 15-30 minutes. […] Finally, the red channel was read on the flow cytometer to determine the sub-G1 population.

U-87 MG cells [4] = experiment: Bright field microscopy of treated cells; type: cell-based, human; details: free ATRA = 40 μM
U-87 MG cells [5] = experiment: PrestoBlue cell viability assay (Example 1); type: cell-based, human
Method: Cell viability was assessed by PrestoBlue™ (Invitrogen/Life Technologies™, Carlsbad, USA, Catalog No.: A13262) assay. In this experiment, cells were first seeded in 6-well plates in a density of 6×10^4 cells/well. Viability tests were conducted at 48, 72, and 96 hours by replacing the cell media with 10% PrestoBlu™ reagent and incubating at 37° C. for 1 hour. Following, 100 μl of the incubated 10% PrestoBlue™ reagent from each well of the assay plates was transferred to a new well in a 96-well plate and read by a microplate reader (Infinite M200 Pro). Finally, viability was calculated by the following equation: […]

U87 glioblastoma cells = experiment: PrestoBlue cell viability assay (Example 2); type: cell-based; details: Homo sapiens, 96-hours treatment, read-out: reduction of cell viability
Method: PrestoBlue™ cell viability assay was used to determine the effect of TMZ on the viability and proliferation of U87 glioblastoma cells. In this assay, metabolically active cells reduce a non-fluorescent compound (resazurin) in the PrestoBlue™ solution into a fluorescent molecule (resorufin).
In this study, U87 glioblastoma cells were seeded in a 96 well plate at 5,000 cells per well density, and a 24 well plate at 25,000 cells per well density to evaluate the cytotoxicity of free TMZ and one embodiment of the disclosed composition, respectively. The wells were then incubated for 24 hours at 37° C. with 95% relative humidity and 5% CO2. To determine the effect of the free TMZ, U87 glioblastoma cells were treated with different concentrations of the drug from 100 μM to 1000 μM in the cell medium. To study the effect of the disclosed hydrogel composition, the cells were treated with both microsphere-loaded (TMZ concentration of 100 μM) and blank meshes. Cells were incubated for 24, 48, 72, and 96 hours without changing the cell culture medium. […] Subsequently, the cell culture medium containing presto blue was transferred into a new well plate and the fluorescent intensity of each well was measured at excitation wavelength of 535 nm and emission wavelength of 615 nm by using a plate reader. Cell viability was then calculated by using equation 4 (Eq. 4): […]

Row | SMILES | cell population relative to control condition (U-87 MG cells [1]; 48 hours) | cell population relative to control condition (U-87 MG cells [1]; 96 hours) | half-life [2] | apoptosis (sub-G1 population) (U-87 MG cells [3]) | cell morphology (U-87 MG cells [4]) | cell viability compared to control (U-87 MG cells [5]; 20 μM in cell medium, 96 hours) | cell viability compared to control (U-87 MG cells [5]; 40 μM in cell medium, 96 hours) | viability at 20 µM (U-87 MG cells [5]; Homo sapiens, U-87 MG, 48 h, 20 μM in cell medium, 48 hours, read-out: cell viability compared to control) | viability at 20 µM (U-87 MG cells [5]; Homo sapiens, U-87 MG, 96 h, 20 μM in cell medium, 96 hours, read-out: cell viability compared to control) | viability at 40 µM (U-87 MG cells [5]; Homo sapiens, U-87 MG, 96 h, 40 μM in cell medium, 96 hours, read-out: cell viability compared to control) | cytotoxicity at 100 µM (U87 glioblastoma cells; free TMZ 100 μM) | cytotoxicity at 1000 µM (U87 glioblastoma cells; free TMZ 1000 μM)
1 | CC1=C(/C=C/C(C)=C/C=C/C(C)=C/C(=O)O)C(C)(C)CCC1 [ATRA, all-trans retinoic acid] | 86.0%±7.2% | 64.4%±8.6% | about 1.5 hours | about 2% | cell shrinkage | 77% | 72% | 88.4% | 77.3% | 72.4% | – | –
2 | Cn1nnc2c(C(N)=O)ncn2c1=O [TMZ, Temozolomide] | – | – | – | – | – | – | – | – | – | – | 78% | 95%
